Test results reported in EP4417602A1, “SUBSTITUTED PYRAZOLE CARBOXAMIDES, SALTS THEREOF AND THEIR USE AS HERBICIDALLY ACTIVE SUBSTANCES” (Bayer AG, priority 2023, dated 2024).

Key:
[1] = tested on: KCHSC; assay: A. Herbicidal pre-emergence action on harmful plants (Tables A); assay type: in vivo, Kochia scoparia; conditions: application rate 1280 g/ha; visual grading after ca. 3 weeks vs untreated controls; 100% = plants have died off, 0% = as control plants
Description: Seeds of mono- and dicotyledonous weed plants were sown in plastic pots (double sowings with one species of mono- and one species of dicotyledonous weed plants per pot), in sandy loam, and covered with soil. The compounds according to the invention, formulated in the form of wettable powders (WP) or as emulsifiable concentrates (EC), were applied to the surface of the covering soil as aqueous suspension or emulsion, with the addition of 0.5% of an additive, at an application rate of 6001 of water per hectare (converted). Following treatment, the pots were placed in a greenhouse and kept under optimum growth conditions for the test plants. The visual grading of the damage to the test plants was carried out after ca. 3 weeks in comparison to untreated controls (herbicidal effect in percent (%): 100% effect = plants have died off, 0% effect = as control plants). Tables A1 to A12, below, show the effects of selected compounds of the general formula (I) according to table 1 on various harmful plants and an application rate corresponding to 1280 g/ha or below obtained by the experimental procedure mentioned above. Table A1: pre-emergence activity at 1280g/ha against ABUTH in %

[2] = tested on: POAAN; assay: as above; assay type: in vivo, Poa annua
How it was run: (§1)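 Greenhouse pre-emergence test: compound applied to the soil surface at 1280 g/ha or below, and herbicidal effect rated visually at ca. 3 weeks on a 0–100% scale against untreated plants.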

[3] = tested on: VERPE; assay: B. Herbicidal post-emergence action on harmful plants (Tables B); assay type: in vivo, Veronica persica; conditions: application rate 1280 g/ha; Table B11a
How it was run: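 Activity was scored visually as % damage (100% = dead, 0% = like untreated) about 3 weeks after treatment. Plants at the one-leaf stage, 2-3 weeks old, were sprayed with WP/EC formulations plus 0.5% additive (600 L/ha water, up to 1280 g/ha). Plants were grown in sandy loam in a greenhouse.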

[4] = tested on: AMARE; assay: A. Herbicidal pre-emergence action on harmful plants (Tables A); assay type: in vivo, Amaranthus retroflexus
How it was run: as §1

[5] = tested on: MATIN; assay: as above; assay type: in vivo, Matricaria inodora; conditions: visual grading after ca. 3 weeks vs untreated controls, 100% = plants have died off, 0% = as control plants
How it was run: as §1

[6] = tested on: DIGSA; assay: as above; assay type: in vivo, Digitaria sanguinalis
How it was run: as §1

[7] = tested on: SETVI; assay: as above; assay type: in vivo, Setaria viridis; conditions: visual grading after ca. 3 weeks vs untreated controls, 100% = plants have died off, 0% = as control plants
How it was run: as §1

[8] = tested on: STEME; assay: as above; assay type: in vivo, Stellaria media; conditions: visual grading after ca. 3 weeks vs untreated controls, 100% = plants have died off, 0% = as control plants
How it was run: as §1

[9] = application rate 1280 g/ha, visual grading after ca. 3 weeks vs untreated controls, 100% = plants have died off, 0% = as control plants

COCc1nn(Cc2ccccc2)cc1C(=O)N1CCCC1Cc1ccccc1F (racemic) [Example I-024]
pre-emergence activity against KCHSC [1]: 90%
pre-emergence activity against POAAN ([2]; application rate 80 g/ha, Table A7c): 90%
pre-emergence activity against POAAN ([2]; application rate 320 g/ha, Table A7b): 90%
pre-emergence activity against POAAN [2, 9]: 100%
post-emergence activity against VERPE [3]: 90%
pre-emergence activity against AMARE ([4]; application rate 320 g/ha, Table A8b): 90%
pre-emergence activity against AMARE [4, 9]: 90%
pre-emergence activity against MATIN ([5]; application rate 80 g/ha): 90%
pre-emergence activity against MATIN ([5]; application rate 320 g/ha): 90%
pre-emergence activity against MATIN ([5]; application rate 1280 g/ha): 90%
pre-emergence activity against DIGSA ([6]; application rate 320 g/ha, Table A12b): 90%
pre-emergence activity against DIGSA ([6]; application rate 1280 g/ha, Table A12a): 90%
pre-emergence activity against SETVI ([7]; application rate 80 g/ha): 90%
pre-emergence activity against SETVI ([7]; application rate 320 g/ha): 90%
pre-emergence activity against SETVI ([7]; application rate 1280 g/ha): 90%
pre-emergence activity against STEME ([8]; application rate 320 g/ha): 90%
pre-emergence activity against STEME ([8]; application rate 1280 g/ha): 100%
